Measured values from patent US11840686B2, “Modulation of prekallikrein (PKK) expression” (Ionis Pharmaceuticals, Inc., priority 2013, dated 2023).
Strand notation (5' to 3'): a small letter for the sugar, then the base; units joined by * are phosphorothioate-linked, units joined directly phosphodiester-linked; [ ] holds rarer units or linkages, { } end groups; capitals alone tell only the bases. e = 2'-O-(2-methoxyethyl) (MOE); [5mC] = 5-methylcytosine; d = 2'-deoxy (DNA)

Test system: human PKK mRNA
Experiment: Antisense inhibition of human PKK mRNA in HepaRG cells, 3,000 nM (Example 1)
Assay type: cell-based
Conditions: Table 2; PKK mRNA, HepaRG cells, 3,000 nM, electroporation, ~24 h, relative to untreated control cells
Protocol: Antisense oligonucleotides were designed targeting a PKK nucleic acid and were tested for their effects on PKK mRNA in vitro. HepaRG™ cells, which are terminally differentiated hepatic cells derived from a human hepatic progenitor cell line and retain many characteristics of primary human hepatocytes (Lubberstedt M. et al., J. Pharmacol. Toxicol. Methods 2011 63: 59-68), were used in the screen.
The chimeric antisense oligonucleotides in the tables below were designed as 5-10-5 MOE gapmers. The gapmers are 20 nucleosides in length, wherein the central gap segment comprises of ten 2′-deoxynucleosides and is flanked by wing segments on the 5′ direction and the 3′ direction comprising five nucleosides each. Each nucleoside in the 5′ wing segment and each nucleoside in the 3′ wing segment has a 2′-O-methoxyethyl modification. The internucleoside linkages throughout each gapmer are phosphorothioate linkages. All cytosine residues throughout each gapmer are 5-methylcytosines. “Start site” indicates the 5′-most nucleoside to which the gapmer is targeted in the human gene sequence. “Stop site” indicates the 3′-most nucleoside to which the gapmer is targeted in the human gene sequence.
Cultured HepaRG™ cells at a density of 20,000 cells per well were transfected using electroporation with 3,000 nM antisense oligonucleotide. After a treatment period of approximately 24 hours, RNA was isolated from the cells and PKK mRNA levels were measured by quantitative real-time PCR. Human primer probe set RTS3454 (forward sequence […], designated herein as SEQ ID NO: 20; reverse sequence […], designated herein as SEQ ID NO: 21; probe sequence […], designated herein as SEQ ID NO: 22) was used to measure mRNA levels. PKK mRNA levels were adjusted according to total RNA content, as measured by RIBOGREEN®. The antisense oligonucleotides were tested in a series of experiments that had similar culture conditions. Results are presented as percent inhibition of PKK, relative to untreated control cells.

| Substance | % inhibition |
| --- | --- |
| 531030 (antisense eA*eA*eT*eT*e[5mC]*dA*dG*dT*dG*dT*dA*dA*dT*dT*d[5mC]*eA*eA*eA*eG*eG) [compound 531030] | 24% |
| 531031 (antisense eT*eT*eT*eG*eG*dA*dA*dT*dT*d[5mC]*dA*dG*dT*dG*dT*eA*eA*eT*eT*e[5mC]) [compound 531031] | 59% |
| 531032 (antisense eT*eG*eG*eT*eT*dT*dT*dT*dG*dG*dA*dA*dT*dT*d[5mC]*eA*eG*eT*eG*eT) [compound 531032] | 67% |
| 531033 (antisense eA*eT*eT*eG*eG*dT*dT*dT*dT*dT*dG*dG*dA*dA*dT*eT*e[5mC]*eA*eG*eT) [compound 531033] | 53% |
| 531034 (antisense e[5mC]*eA*eT*eA*eT*dT*dG*dG*dT*dT*dT*dT*dT*dG*dG*eA*eA*eT*eT*e[5mC]) [compound 531034] | 36% |
| 531035 (antisense eG*eT*eA*eG*eG*d[5mC]*dA*dT*dA*dT*dT*dG*dG*dT*dT*eT*eT*eT*eG*eG) [compound 531035] | 46% |
| 531036 (antisense eG*eT*eG*eT*e[5mC]*dA*d[5mC]*d[5mC]*dT*dT*dT*dG*dG*dA*dA*eG*eG*eT*eA*eG) [compound 531036] | 71% |
| 531037 (antisense eA*eA*e[5mC]*eA*eG*dT*dT*dG*dG*dT*dA*dT*dA*dA*dA*eT*eT*eG*eT*eG) [compound 531037] | 35% |
| 531038 (antisense e[5mC]*eA*eA*e[5mC]*eA*dG*dT*dT*dG*dG*dT*dA*dT*dA*dA*eA*eT*eT*eG*eT) [compound 531038] | 22% |
| 531039 (antisense eT*eA*e[5mC]*e[5mC]*e[5mC]*dA*dA*d[5mC]*dA*dG*dT*dT*dG*dG*dT*eA*eT*eA*eA*eA) [compound 531039] | 36% |
| 531040 (antisense eT*e[5mC]*e[5mC]*eT*eT*d[5mC]*dG*dA*dG*dA*dA*dG*d[5mC]*d[5mC]*d[5mC]*e[5mC]*eA*eT*e[5mC]*e[5mC]) [compound 531040] | 27% |
| 531041 (antisense eA*eA*eA*eG*eG*dA*dA*dT*dA*dT*dT*dT*dA*d[5mC]*d[5mC]*eT*eT*eT*eT*eG) [compound 531041] | 68% |
| 531042 (antisense eT*eT*eA*e[5mC]*e[5mC]*dA*dA*dA*dG*dG*dA*dA*dT*dA*dT*eT*eT*eA*e[5mC]*e[5mC]) [compound 531042] | 11% |
| 531043 (antisense eA*eT*eT*eT*eG*dT*dT*dA*d[5mC]*d[5mC]*dA*dA*dA*dG*dG*eA*eA*eT*eA*eT) [compound 531043] | 27% |
| 531044 (antisense eG*eG*e[5mC]*eA*eT*dT*d[5mC]*dT*dT*d[5mC]*dA*dT*dT*dT*dG*eT*eT*eA*e[5mC]*e[5mC]) [compound 531044] | 68% |
| 531045 (antisense eT*eT*eT*e[5mC]*eT*dG*dG*d[5mC]*dA*dT*dT*d[5mC]*dT*dT*d[5mC]*eA*eT*eT*eT*eG) [compound 531045] | 37% |
| 531046 (antisense eG*eA*eT*eA*eT*d[5mC]*dT*dT*dT*dT*d[5mC]*dT*dG*dG*d[5mC]*eA*eT*eT*e[5mC]*eT) [compound 531046] | 54% |
| 531047 (antisense eA*eT*e[5mC]*eT*eT*dG*dA*dT*dA*dT*d[5mC]*dT*dT*dT*dT*e[5mC]*eT*eG*eG*e[5mC]) [compound 531047] | 68% |
| 531048 (antisense eT*eT*eA*eT*eA*dA*dT*d[5mC]*dT*dT*dG*dA*dT*dA*dT*e[5mC]*eT*eT*eT*eT) [compound 531048] | 42% |

| Substance | % inhibition |
| --- | --- |
| 531049 (antisense eT*eT*eA*eT*eT*dT*dT*dA*dT*dA*dA*dT*d[5mC]*dT*dT*eG*eA*eT*eA*eT) [compound 531049] | 2% |
| 531050 (antisense eT*eT*eG*eG*eG*dT*dT*dA*dT*dT*dT*dT*dA*dT*dA*eA*eT*e[5mC]*eT*eT) [compound 531050] | 18% |
| 531051 (antisense eA*eT*e[5mC]*e[5mC]*eG*dT*dT*dG*dG*dG*dT*dT*dA*dT*dT*eT*eT*eA*eT*eA) [compound 531051] | 51% |
| 531052 (antisense eA*eG*eA*e[5mC]*e[5mC]*dA*dT*d[5mC]*d[5mC]*dG*dT*dT*dG*dG*dG*eT*eT*eA*eT*eT) [compound 531052] | 60% |
| 531053 (antisense eA*eG*e[5mC]*eA*e[5mC]*dA*dG*dA*d[5mC]*d[5mC]*dA*dT*d[5mC]*d[5mC]*dG*eT*eT*eG*eG*eG) [compound 531053] | 49% |
| 531054 (antisense e[5mC]*eT*eT*eT*eA*dT*dA*dG*d[5mC]*d[5mC]*dA*dG*d[5mC]*dA*d[5mC]*eA*eG*eA*e[5mC]*e[5mC]) [compound 531054] | 48% |
| 531056 (antisense eT*eT*eT*e[5mC]*e[5mC]*d[5mC]*d[5mC]*d[5mC]*dT*dT*d[5mC]*dT*dT*dT*dA*eT*eA*eG*e[5mC]*e[5mC]) [compound 531056] | 45% |
| 531057 (antisense e[5mC]*eA*eT*e[5mC]*eT*dT*dT*dT*d[5mC]*d[5mC]*d[5mC]*d[5mC]*d[5mC]*dT*dT*e[5mC]*eT*eT*eT*eA) [compound 531057] | 48% |
| 531058 (antisense e[5mC]*e[5mC]*e[5mC]*eT*eT*dA*d[5mC]*dA*dA*dG*d[5mC]*dA*dT*d[5mC]*dT*eT*eT*eT*e[5mC]*e[5mC]) [compound 531058] | 60% |
| 531059 (antisense eA*e[5mC]*eA*eT*eT*d[5mC]*d[5mC]*dA*dT*dT*dG*dT*dG*dT*dT*eT*eG*e[5mC]*eA*eA) [compound 531059] | 55% |
| 531060 (antisense eT*eG*eG*eT*eG*dA*dT*dG*d[5mC]*d[5mC]*d[5mC]*dA*d[5mC]*d[5mC]*dA*eA*eA*e[5mC]*eG*e[5mC]) [compound 531060] | 35% |
| 531061 (antisense eT*eG*e[5mC]*eT*e[5mC]*d[5mC]*d[5mC]*dT*dG*d[5mC]*dG*dG*dG*d[5mC]*dA*e[5mC]*eA*eG*e[5mC]*e[5mC]) [compound 531061] | 52% |
| 531062 (antisense e[5mC]*eA*eG*eG*eT*dT*dG*d[5mC]*dT*d[5mC]*d[5mC]*d[5mC]*dT*dG*d[5mC]*eG*eG*eG*e[5mC]*eA) [compound 531062] | 39% |
| 531063 (antisense eG*eA*e[5mC]*eA*e[5mC]*d[5mC]*dA*dG*dG*dT*dT*dG*d[5mC]*dT*d[5mC]*e[5mC]*e[5mC]*eT*eG*e[5mC]) [compound 531063] | 51% |
| 531064 (antisense eG*eT*eG*eT*eA*dG*dA*d[5mC]*dA*d[5mC]*d[5mC]*dA*dG*dG*dT*eT*eG*e[5mC]*eT*e[5mC]) [compound 531064] | 56% |
| 531065 (antisense e[5mC]*eT*eT*eT*eG*dG*dT*dG*dT*dA*dG*dA*d[5mC]*dA*d[5mC]*e[5mC]*eA*eG*eG*eT) [compound 531065] | 57% |
| 531066 (eA*eG*e[5mC]*eG*eA*d[5mC]*dT*dT*dT*dG*dG*dT*dG*dT*dA*eG*eA*e[5mC]*eA*e[5mC]; antisense) [compound 531066] | 67% |
| 531067 (eT*eA*e[5mC]*eT*e[5mC]*dA*dG*d[5mC]*dG*dA*d[5mC]*dT*dT*dT*dG*eG*eT*eG*eT*eA; antisense) [compound 531067] | 31% |
